Common to all, as to type: cell-based, mouse
The test system of one assay is mTORC1. Nature of the assay: Western blot of GLUL, p-S6K1, p-4EBP1 in cultured ACMs with Asns KD. The note with it: Asn treatment of D4 Asns^KD ACMs. As for the experimental part: Protein extraction was carried out using 6 M urea lysis buffer with 1 mM dithiothreitol, protease inhibitor and phosphatase inhibitor. For protein extraction from cultured ACMs and purified CMs, lysis buffer was added directly to the cells, followed by vigorous pipetting. For protein extraction from mouse heart apex, a piece of apex tissue resected from each mouse heart was weighted and submerged in 500 μL lysis buffer in a 2 mL Sarstedt tube. One single stainless-steel bead (diameter 5 mm) was added to each tube containing apex tissue in lysis buffer. The TissueLyser II was assembled as per manufacturer's guidelines with pre-chilled adapters. The apex tissue was homogenised for 20 s at 30 Hz for two rounds, until no visible tissue debris was observed. Protein quantification was done using Bio-Rad Protein Assay Kit I as per manufacturer's guidelines.
The protein lysate with loading buffer was heated at 60° C. for 10 mins before loading onto a 10% SDS-polyacrylamide gel. After transfer, the blotting membrane was blocked in 5% blotting-grade blocker in TBST for 1 hour, followed by primary antibody incubation at 4° C. overnight and secondary antibody incubation at room temperature (R.T.) for 1 hour. The blot was detected by ECL substrate reaction and exposure on a ChemiDoc™ touch imaging system (BioRad). The quantification of protein expression level was performed using Fiji software. […]
For orientation: In western blotting, separated proteins are transferred to a membrane and probed.

Assay [1] relates to cultured ACMs. The assay is described as follows: Propidium iodide (PI) staining of cultured ACMs (CM death). The note with it: eliminating Asn in cultured ACMs. How it is done:
Purified CMs were either directly lysed for RNA and protein extraction, or pre-plated on uncoated cell culture dishes for 1 hour to further remove non-CMs before culture on laminin-coated cell culture plates. During the first two days of culturing (D0 and D1), 1 µM of blebbistatin (Sigma-Aldrich) was added as a specific myosin II inhibitor (see Kabaeva Z et al., 2008). Starting from D2, blebbistatin was removed to accelerate morphological changes of CMs. 10% FBS was included in the culture media during the whole culture procedure, and the small colonies of non-CMs were carefully scraped under a microscope and washed away daily. Images of CMs were captured using the EVOS® FL Cell Imaging System (Thermo Fisher) under different channels. PI (final concentration 1 μg/mL) and Hoechst (final concentration 1 μg/mL) was added at a to cultured ACMs, and incubated at 37° C. for 45 mins. The ACMs were immediately imaged by Nikon inverted microscope Eclipse Ti-E. For each well in the cell cultured dishes, 8 to 9 random regions were imaged. PI+ CMs were quantified using Fiji software.

The test system of assay [2] is cultured ACMs. The assay is described as follows: RT-qPCR of cell cycle genes in cultured ACMs. As for the experimental part:
For freshly isolated mouse CMs, a total number of about 120,000 CMs (⅛ of total CMs) per heart were lysed by 1 mL TRIzol™ Reagent. To lyse cultured CMs, 1 mL TRIzol™ Reagent was added to each well in 12-well and 6-well cell culture plates. Total RNA extraction was performed as per manufacturer's protocol.
cDNA was synthesised with oligo dT and random primers using the qScript™ cDNA Synthesis Kit. qPCR was performed with PerfeCTa® Low Rox™ ToughMix™ (Quantabio) on a real-time PCR system. All qPCR data were normalised to the expression of housekeeping genes Gapdh and Rplp0.

Turning to `NC(=O)C[C@H](N)C(=O)O` [Asn, asparagine], in the assay on mTORC1, the p-4EBP1 result is “restored” and the p-S6K1 entry is listed as “promoted”.

B1: L-asparaginase (protein, UniProt P00805 23-348, looked up)
L-asparaginase 2: LPNITILATGGTIAGGGDSATKSNYTVGKVGVENLVNAVPQLKDIANVKGEQVVNIGSQDMNDNVWLTLAKKINTDCDKTDGFVITHGTDTMEETAYFLDLTVKCDKPVVMVGAMRPSTSMSADGPFNLYNAVVTAADKASANRGVLVVMNDTVLDGRDVTKTNTTDVATFKSVNYGPLGYIHNGKIDYQRTPARKHTSDTPFDVSKLNELPKVGIVYNYANASDLPAKALVDAGYDGIVSAGVGNGNLYKSVFDTLATAAKTGTAVVRSSRVPTGATTQDAEVDDAKYGFVASGTLNPQKARVLLQLALTQTKDPQQIQQIFNQY
On to B1, for which the cell death result with cultured ACMs [1] is recorded as “did not induce more cell death”. Also, the “expression of cell cycle genes (Cdk1, Mki67, Aukrb)” value in the assay on cultured ACMs [2] is recorded as “diminished”.

The record behind these values is patent US20260235604A1, “A NOVEL MARKER FOR CARDIOMYOCYTES DEDIFFERENTIATION” (National University of Singapore, priority 2023, published 2026).
